Consider eight molecules from patent US20120070511A1, “MITOCHONDRIAL INHIBITORS AND USES THEREOF” (priority 2009, published 2012).

What all share (format): cell-based
Data set [1] concerns multiple myeloma cell lines (MM.1S, 8226, KMS-11, U266). On the procedure:
(§1) Cytotoxicity assay: Cells were incubated for 24 hr at 37° C. in 5% CO2 at which time drug treatments began and continued for 24 hr. At this time attached cells were trypsinized and combined with their respective culture media while suspension cells were directly transferred to a tube followed by centrifugation at 400 g for 5 min. The pellets were resuspended in 1 ml of Hanks solution and analyzed by Vi-Cell (Beckman Coulter, Fullerton, Calif.) cell viability analyzer.

Data set [2] concerns non-myeloma cell lines (NALM6, 143B, MDA-MB-435, 1420). On the procedure:
as §1

Data set [3] relates to B-cell leukemia lines (NALM6, REH). The procedure:
(§2) Cytotoxicity assay: Cells were incubated for 24 h at 37° C. in 5% CO2 at which time drug treatments began and continued for 24 h. At this time cells were transferred to a tube followed by centrifugation at 400 g for 5 min. The pellets were resuspended in 1 ml of Hanks solution and analyzed by Vi-Cell (Beckman Coulter, Fullerton, Calif., USA) cell viability analyzer.

Data set [4] relates to MM cell lines (MM.1S, 8226, KMS-11). The procedure: as §2
Data set [5] relates to MM cell lines (MM1.S, 8226, KMS-11, U266). Nature of the data set: Measurement of cytoplasmic calcium (indo-1 fluorescence ratio 400/500 nm). Particulars: for cytoplasmic Ca2+ after mitochondrial inhibitor / effect on mitochondrial Ca2+ uptake: MM cell lines; for effect on mitochondrial Ca2+ uptake: estimated from cytoplasmic Ca2+. On the procedure: (§3) Measurement of cytoplasmic calcium: Cytoplasmic Ca^2+ concentration was estimated by using the cell permeant fluorochrome indo-1-AM (Invitrogen, Carlsbad, Calif.). When excited at 355 nm, the maximum emission of indo-1 shifts from 500 nm to 400 nm following its binding to free Ca^2+. Thus, the ratio of reading at 400 nm and 500 nm correlates with concentration of cytoplasmic Ca^2+. Experiments were performed in cells loaded with indo-1 by incubating them with 2.5 μM of this fluorochrome at 37° C. for 45 min. Cells were then centrifuged at 400 g for 5 min and resuspended in their growth medium followed by distribution of 100 μl of aliquots into 96 well optical bottom plates (Nalge Nunc, Int., Rochester, N.Y.) and fluorescence was measured by Spectra Max Gemini Plus (Molecular Devices, Sunnyvale, Calif.). The average of triplicates from untreated samples was used as control reading and increase in cytoplasmic Ca^2+ was calculated as percent increase from control samples.

Data set [6] has as its system non-myeloma cell lines (NALM6, MDA-MB-435, 143B, 1420). Described as above. Particulars: for increase in cytoplasmic Ca2+ after mitochondrial inhibitor: non-myeloma cell lines (oligomycin: all cell lines). The procedure:
as §3

The test system of data set [7] is CHOP/GADD153 and cleaved caspase 3 in 4 MM cell lines. The experiment in a line: Western blot of CHOP/GADD153 and cleaved caspase 3 (UPR-mediated apoptosis). Particulars: all 4 MM cell lines. On the procedure: Western Blot analysis: Cells are plated at 10^4 cell/cm^−2 for attached cells and 3×10^5/ml for suspension cells and grown under drug treatment for the indicated times. At the end of the treatment period, cells are collected and lysed with 1% SDS in 80 mM Tris-HCL (ph 7.4) buffer supplemented with a proteinase inhibitor cocktail. DNA is fragmented by sonication and protein concentrations are measured by microBCA protein assay kit (Pierce, Rockford, Ill.). Samples are mixed with 3× Laemmli sample buffer (Cell Signaling, Danvers, Mass.) and 40 μg of protein was run on a 12% SDS-polyacrylamide gel. Gels are transferred to nitrocellulose membranes (Amersham, Piscataway, N.J.) and probed with monoclonal rabbit anti-GRP94, anti GRP-78, anti-PDI, anti-CHOP/GADD153, anti-cleaved caspase 3 (Cell Signaling, Danvers, Mass.) and monoclonal mouse anti-β-actin (Sigma, St. Louis, Mo.). Following probing, membranes are washed and incubated with HRP-conjugated secondary antibody (Invitrogen, Carlsbad, Calif.). Following addition of 1:3 diluted femto-chemiluminescent substrate (Pierce, Rockford, Ill.) membranes were exposed to blue autoradiographic film (ISC bioexpress, Kaysville, Utah). Where indicated, membranes were stripped with Stripping Buffer (Pierce, Rockford, Ill.) and reprobed with anti-β-actin (Sigma-Aldrich, St. Louis, Mo.) primary antibody. When needed, the blots were quantified using Bio-Rad gel reader which employs Quality I software (Bio-Rad, Hercules, Calif.).
On the technique in general: A western blot detects proteins with antibodies after separation by electrophoresis.

Data set [8] has as its system CHOP/GADD153 and cleaved caspase 3 in MM.1S, 8226, KMS-11. Nature of the data set: Western blot of CHOP/GADD153 and cleaved caspase 3 in 3 MM cell lines. Particulars: concentrations of FIG. 13. On the procedure: . Induction of UPR-mediated apoptosis following treatment of 3 MM cell lines with four different mitochondrial inhibitors for various time points was assayed by western blot analysis of CHOP and cleaved caspase 3.
Western blot analysis: Western blots were performed. Membranes were probed with monoclonal rabbit anti-GRP94, anti GRP-78, anti-PDI, anti-CHOP/GADD153, anti-cleaved caspase 3 (Cell Signaling, Danvers, Mass., USA) and monoclonal mouse anti-β-actin (Sigma, St. Louis, Mo., USA).

Data set [9] has as its system MM (MM.1S, 8226, KMS-11) and B-cell leukemia (NALM6, REH) cell lines. The experiment in a line: ER Ca2+ leak: cytoplasmic Ca2+ (indo-1) after thapsigargine, Example 2. The procedure:
Measurement of cytoplasmic and mitochondrial calcium: Cytoplasmic Ca^2+ concentration was estimated by using the cell permeant ratiometric fluorochrome indo-1-AM (Invitrogen, Carlsbad, Calif., USA) while mitochondrial Ca^2+ was measured by X-Rhod-1-AM (Invitrogen, Carlsbad, Calif., USA). In the latter assay, to normalize mitochondrial Ca^2+ signal to mitochondria number, Mitotracker Green (Invitrogen, Carlsbad, Calif., USA) fluorescence was simultaneously analyzed. Experiments were performed in cells loaded with either 2.5 μM of indo-1 or 5 μM X-rhod-1 and 250 nM of Mitotracker at 37° C. for 45 min. Cells were, then, centrifuged at 400 g for 5 min and resuspended in their growth medium followed by distribution of 100 μl of aliquots into 96 well optical bottom plates (Nalge Nunc, Int., Rochester, N.Y., USA) and fluorescence was measured by Spectra Max Gemini Plus (Molecular Devices, Sunnyvale, Calif., USA). The average of triplicates from untreated samples was used as control reading and increase in cytoplasmic or mitochondrial Ca^2+ was calculated as percent increase from control samples.
Due to the high levels of glycoprotein production in MM cells, it was investigated whether there is a greater ER Ca^2+ leak in these cells as compared to Bcells. As shown in previous reports, ER Ca^2+ leak can be assayed indirectly by measuring cytoplasmic Ca^2+ concentration following inhibition of SERCA by thapsigargine.

The next data set relates to MM.1S cells. Nature of the data set: Reversal of CCCP induced toxicity (trypan blue exclusion). Particulars: 10 μM BAPTA-AM or 50 μM of Z-VAD. The procedure: A) Reversal of CCCP induced toxicity by either 10 μM BAPTA-AM or 50 μM of Z-VAD was investigated using trypan blue exclusion assays. The bars represent the average of triplicate samples +SD. B) ATP levels were assayed following 6 h of treatment with indicated concentrations of CCCP. The bars represent the average of triplicate samples +SD. C) Induction of UPR, activation of AMPK pathway and cleavage of caspase 3 was analyzed by western blots following 24 h treatment with indicated concentrations of CCCP in MM.1S and REH cell lines. β-Actin was used as a loading control. D) The quantification of phosphorylated AMPK and total AMPK bands in the previous panel was done using a Bio-Rad gel reader which employs Quality I software. The bars represent the fold increase in the ratio of p-AMPK/AMPK in treated versus untreated samples from three independent experiments +SD.
as §2

The mark [10] stands for this setting: 24 h, at doses toxic to MM cell lines.
[11] abbreviates: 24 h, at concentrations toxic to MM cell lines.

Where two headings read alike, the source gives them in different places.

Consider `Cc1c(C)c2c(c(C)c1O)CCC(C)(COc1ccc(CC3SC(=O)NC3=O)cc1)O2` (stereo not drawn) [troglitazone], for which the “cytotoxicity (cell death)” value in data set [1] and in data set [4] was “significant toxicity” throughout. Moreover, the values for the cytotoxicity result in data set [2] (setting [10]) and in data set [3] (setting [11]) were “not toxic to non-myeloma cells” and “less toxic to B-cell leukemia lines”, respectively.
Turning to `C=C(C)[C@H]1Cc2c(ccc3c2O[C@@H]2COc4cc(OC)c(OC)cc4[C@@H]2C3=O)O1` [rotenone], the “cytotoxic potency compared to the other mitochondrial inhibitors” value in data set [1] is listed as “equipotency in inducing cytotoxicity in MM cells”. For the same molecule, the “cytotoxicity (cell death)” value in [1] and in data set [4] was “significant cell death” each time. Further, the cytotoxicity result in [2] and in [3] was “little or no toxicity” throughout. For the same molecule, the “cytoplasmic Ca2+ after mitochondrial inhibitor” value in data set [5] is listed as “immediate increase in cytoplasmic Ca^2+”. Moreover, the “effect on mitochondrial Ca2+ uptake” value in data set [5] is reported as “equally inhibit mitochondrial Ca^2+ uptake”. Also, the “increase in cytoplasmic Ca2+ after mitochondrial inhibitor” value (“increase … after mitochondrial inhibitor” for short) in data set [6] is given as “not seen in non-myeloma cell lines except for NALM6”. Further, the “treatment time at which CHOP/GADD153 expression is noted” value in data set [7] was determined as 6 h. Moreover, in data set [8], the “CHOP/GADD153 expression relative to CCCP” value is given as “less CHOP/GADD153 expression than CCCP”.
On to `C/C=C(/C)C(=O)O[C@H]1C(C)=C2[C@H]([C@@H]1OC(=O)CCCCCCC)[C@@](C)(OC(C)=O)C[C@H](OC(=O)CCC)[C@@]1(O)[C@H]2OC(=O)[C@@]1(C)O` [thapsigargine], for which the “cytotoxicity (cell death)” value in data set [1] and in data set [4] was “sensitive” each time. Besides, the “order of sensitivity among MM cell lines” value in data set [1] (24 h treatment) is on record as “MM.1S>8226>KMS-11>U266”. The cytotoxicity result in data set [2] (setting [10]) and in data set [3] (setting [11]) was “resistant” each time. Also, in data set [5] (8226 compared to KMS-11 or U266), the “cytoplasmic Ca2+ increase after thapsigargine in 8226” value is listed as “increase less than that observed in KMS-11 or U266 cell lines”. For the same molecule, in data set [5] (U266 (printed U226) cell line), the “lag before increase in cytoplasmic Ca2+” value is about 20 min. The “cytoplasmic Ca2+ concentration after thapsigargine” value in [5] (immediately after addition, MM1.S, 8226 and KMS-11) is given as “significantly increases”. The “cytoplasmic Ca2+ after thapsigargine” value in data set [6] (143B and 1420, 30 min. after addition) is recorded as “significantly increases”; in data set [6] (NALM6 and MDA-MB-435), “little or no change”. The “order of ER Ca2+ leak after thapsigargine” value in data set [9] (MM cell lines) was “MM1.S>8226>KMS-11”. In addition, the “cytoplasmic Ca2+ concentration at new equilibrium” value in [9] (after 30 min, MM versus B-cell leukemias) was “all 3 MM cell lines had significantly greater cytoplasmic Ca^2+ concentration than the 2 B-cell leukemias”. The “cytoplasmic Ca2+ concentration” value in data set [9] (within 5 min after addition, all five cell lines) is listed as “significantly increases”.
Consider `CC[C@H]1/C=C/C=C/C[C@@H](C)[C@H](O)[C@@](C)(O)C(=O)[C@@H](C)[C@H](O)[C@@H](C)C(=O)[C@@H](C)[C@H](O)[C@@H](C)/C=C/C(=O)O[C@@H]2[C@H](C)[C@H](CC1)O[C@]1(CC[C@H](C)[C@H](C[C@@H](C)O)O1)[C@H]2C` [oligomycin], for which the “cytotoxic potency compared to the other mitochondrial inhibitors” value in data set [1] (24 h, MM cells) is listed as “less toxic potency in MM cells when compared to other inhibitors”. Also, the “cytotoxicity (cell death)” value in data set [1] (24 h treatment, all 4 MM cell lines) is “significant cell death”; in data set [4] (24 h, all 3 MM cell lines), “significant cell death”. The cytotoxicity entry in [2] (setting [10]) and in data set [3] (setting [11]) was “little or no toxicity” throughout. In addition, the “effect on mitochondrial Ca2+ uptake” value in [5] is given as “little or no effect”. The “increase … after mitochondrial inhibitor” value in data set [6] is listed as “minimal or no effect”. For the same molecule, in data set [7], the “treatment time at which CHOP/GADD153 expression is noted” value was found to be 6 h. In addition, the “CHOP/GADD153 expression relative to CCCP” value in data set [8] is “comparable to that induced by CCCP”.
With antimycin A, in [1], the “cytotoxic potency compared to the other mitochondrial inhibitors” value is “less toxic than these two mitochondrial inhibitors”. The “cytotoxicity (cell death)” value in data set [1] and in data set [4] was “significant cell death” in each case. For the same molecule, the cytotoxicity result in [2] and in [3] was “little or no toxicity” in each case. In addition, the “cytoplasmic Ca2+ after mitochondrial inhibitor” value in data set [5] was “immediate increase in cytoplasmic Ca^2+”. Further, in data set [6], the “increase … after mitochondrial inhibitor” value is “not seen in non-myeloma cell lines except for NALM6”. The “treatment time at which CHOP/GADD153 expression is noted” value in data set [7] is 6 h. Further, in data set [8], the “CHOP/GADD153 expression relative to CCCP” value is “comparable to that induced by CCCP”.
Turning to `CC(=O)OCOC(=O)CN(CC(=O)OCOC(C)=O)c1ccccc1OCCOc1ccccc1N(CC(=O)OCOC(C)=O)CC(=O)OCOC(C)=O` [BAPTA-AM], the “reversal of CCCP induced toxicity” value in the data set with MM.1S cells is “does not reverse the toxicity of CCCP”.
Consider `CC(C)OC(=O)C(C)(C)Oc1ccc(C(=O)c2ccc(Cl)cc2)cc1` [fenofibrate], for which the “cytotoxicity (cell death)” value in [1] and in [4] was “significant toxicity” throughout. The values for the cytotoxicity entry in data set [2] (setting [10]) and in data set [3] (setting [11]) were “not toxic to non-myeloma cells” and “less toxic to B-cell leukemia lines”, respectively.
Z-VAD: the “reversal of CCCP induced toxicity” value in the data set on MM.1S cells is on record as “can reverse the majority of CCCP toxicity”.
